Experiments:
[1] = test system: HDL (high density lipoprotein) level; test: HDL level of Patient 1 after treatment; format: in vivo, human; conditions: Gemfibrozil 600 mg twice a day, later testing
From the text: Patient 1 suffered from a variety of conditions including diabetes, post traumatic attention deficit disorder, and irritable bowel syndrome. […] However, upon resuming the Gemfibrozil treatment, the levels were again reduced.

[2] = test system: irritable bowel syndrome (IBS) symptoms; test: Patient subjective evaluation of IBS symptoms before and after treatment (case studies); format: in vivo, human
Procedure: Each patient subjectively evaluated his or her symptoms both before and after treatment on a scale from 0 to 10 with 0 representing the absence of symptoms and 10 indicating the most severe symptoms. […] Patient 2 also was treated with Gemfibrozil 600 mg twice daily. […] Patient 3 was originally treated with Gemfibrozil 600 mg twice daily.

[3] = Patient 1, Gemfibrozil 600 mg twice a day, within a day, scale 0 to 10, before 8
[4] = Patient 2, Gemfibrozil 600 mg twice daily, after 1.5 days, scale 0 to 10, before 0
[5] = Patient 3, Gemfibrozil 600 mg twice daily, after 2 days, scale 0 to 10, before 7

Question: How did the “HDL level after treatment” value [1] turn out when `Cc1ccc(C)c(OCCCC(C)(C)C(=O)O)c1` [Gemfibrozil, 5-(2,5-dimethylphenoxy)-2,2-dimethylpentanoic acid] was run?
Answer: increased

Question: What about the “Change of evaluation of IBS symptoms” value ([2]; Patient 1, Gemfibrozil 600 mg twice a day, within a day) of the same compound?
Answer: significant improvement

Question: And the “Patient evaluation of symptoms: Gas (After)” value ([2]; Patient 1, Gemfibrozil 600 mg twice a day, within a day, scale 0 to 10 (0 absence, 10 most severe), before 4)?
Answer: 1

Question: And the “Patient evaluation of symptoms: Constipation (After)” value ([2]; Patient 1, Gemfibrozil 600 mg twice a day, within a day, scale 0 to 10, before 0)?
Answer: 0

Question: And the “Patient evaluation of symptoms: Overall (After)” value ([2]; Patient 1, Gemfibrozil 600 mg twice a day, within a day, scale 0 to 10, before 6.5)?
Answer: 1

Question: And the “Patient evaluation of symptoms: Cramps/Pain (After)” value [2, 3]?
Answer: 1

Question: And the “Patient evaluation of symptoms: Mucus (After)” value [2, 3]?
Answer: 2

Question: And the “Patient evaluation of symptoms: Diarrhea (After)” value ([2]; Patient 1, Gemfibrozil 600 mg twice a day, within a day, scale 0 to 10, before 9)?
Answer: 1

Question: And the “IBS symptom levels upon resuming treatment” value ([2]; Patient 1, Gemfibrozil treatment resumed)?
Answer: again reduced

Question: And the “IBS symptoms on discontinued use” value ([2]; Patient 1, use of Gemfibrozil discontinued)?
Answer: returned to the before levels

Question: What about the “Side effect experienced under treatment” value ([2]; Patient 2, Gemfibrozil 600 mg twice daily) of the same compound?
Answer: occasional constipation

Question: And the “IBS symptoms after treatment” value ([2]; Patient 2, Gemfibrozil 600 mg twice daily, after 1.5 days of treatment)?
Answer: virtually disappeared

Question: What about the “Patient evaluation of symptoms: Gas (After)” value ([2]; Patient 2, Gemfibrozil 600 mg twice daily, after 1.5 days of treatment, scale 0 to 10, before 4.5) of the same compound?
Answer: 0

Question: And the “Patient evaluation of symptoms: Constipation (After)” value [2, 4]?
Answer: 3

Question: What about the “Patient evaluation of symptoms: Mucus (After)” value [2, 4] of the same compound?
Answer: 0

Question: And the “Patient evaluation of symptoms: Cramps/Pain (After)” value ([2]; Patient 2, Gemfibrozil 600 mg twice daily, after 1.5 days, scale 0 to 10, before 5)?
Answer: 0

Question: What about the “Patient evaluation of symptoms: Diarrhea (After)” value ([2]; Patient 2, Gemfibrozil 600 mg twice daily, after 1.5 days, scale 0 to 10, before 8.5) of the same compound?
Answer: 0

Question: And the “Patient evaluation of symptoms: Overall (After)” value ([2]; Patient 2, Gemfibrozil 600 mg twice daily, after 1.5 days, scale 0 to 10, before 9)?
Answer: 1

Question: And the “IBS symptoms after treatment” value ([2]; Patient 3, Gemfibrozil 600 mg twice daily, after 2 days of treatment)?
Answer: greatly improved

Question: What about the “Patient evaluation of symptoms: Gas (After)” value ([2]; Patient 3, Gemfibrozil 600 mg twice daily, after 2 days of treatment, scale 0 to 10, before 3) of the same compound?
Answer: 1

Question: And the “Patient evaluation of symptoms: Constipation (After)” value ([2]; Patient 3, Gemfibrozil 600 mg twice daily, after 2 days, scale 0 to 10, before 0)?
Answer: 0

Question: What about the “Patient evaluation of symptoms: Mucus (After)” value ([2]; Patient 3, Gemfibrozil 600 mg twice daily, after 2 days, scale 0 to 10, before 3) of the same compound?
Answer: 0

Question: What about the “Patient evaluation of symptoms: Cramps/Pain (After)” value [2, 5] of the same compound?
Answer: 2

Question: And the “Patient evaluation of symptoms: Overall (After)” value [2, 5]?
Answer: 2

Question: What about the “Patient evaluation of symptoms: Diarrhea (After)” value ([2]; Patient 3, Gemfibrozil 600 mg twice daily, after 2 days, scale 0 to 10, before 9) of the same compound?
Answer: 3

Question: For `CC(C)OC(=O)C(C)(C)Oc1ccc(C(=O)c2ccc(Cl)cc2)cc1` [micronized fenofibrate, 2-(4-(4-chlorobenzoyl)phenoxy)-2-methyl-propanoic acid 1-methyl ethyl ester], which “Patient evaluation of symptoms in all categories” value ([2]; Patient 3, micronized fenofibrate 200 mg daily, after discontinuing Gemfibrozil, scale 0 to 10) is on record?
Answer: 0

— patent US7601756B2, “Method of treatment for irritable bowel syndrome” (Snowden Pharmaceuticals, LLC, priority 2003, dated 2009)
